Results: ChEMBL document CHEMBL1201862, “PubChem BioAssay data set” (2004)
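48-hour exposure; five concentrations; linearly interpolated endpoints. GI50 = concentration required for 50% inhibition of growth.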 Activity calls are given as the source filed them. No stated cut-off is given here; in the data, active = GI50 up to about 1.1 µM and inactive = higher.

Key:
Assay in all cases: NCI-60 cell line screen, 48 h
[1] = test system: UACC-62
[2] = test system: KM12
[3] = test system: A498
[4] = test system: SN12C
[5] = test system: PC-3
[6] = test system: CAKI-1
[7] = test system: NCI-H522
[8] = test system: UACC-257
[9] = test system: Hs-578T
[10] = test system: HOP-62
[11] = test system: SF-295
[12] = test system: UO-31
[13] = test system: ACHN
[14] = test system: MDA-MB-231
[15] = test system: SF-539
[16] = test system: T47D
[17] = test system: OVCAR-5
[18] = test system: DU-145
[19] = test system: K562
[20] = test system: HL-60

Measured: GI50

O=C(O)C1C2CCC(O2)C1C(=O)NCc1cccnc1 (stereo unspecified)
inactive: [1] > 100 µM | [2] > 100 µM | [3] > 100 µM | [4] > 100 µM | [5] > 100 µM | [6] > 100 µM | [7] > 100 µM | [8] > 100 µM | [9] > 100 µM | [10] > 100 µM | [11] > 100 µM | [12] > 100 µM | [13] > 100 µM | [14] > 100 µM | [15] > 100 µM | [16] > 100 µM | [17] > 100 µM | [18] > 100 µM

CCOC(=O)c1c(NS(=O)(=O)c2ccccc2)sc2c1CCCC2
inactive: [1] 76 µM | [2] 22.1 µM | [3] 98.2 µM | [19] 30.8 µM | [4] 66.7 µM | [5] 39.5 µM | [6] > 100 µM | [8] 81.7 µM | [9] 82.8 µM | [20] 57.5 µM | [10] 46.5 µM | [11] 43.6 µM | [12] 70.5 µM | [13] 64.6 µM | [14] > 100 µM | [15] > 100 µM | [16] 47.8 µM | [17] > 100 µM | [18] 89.5 µM

c1ccc2c(c1)-c1ccccc1C2NC1=NCCO1
inactive: [1] 20.5 µM | [2] 14.2 µM | [3] 18.2 µM | [19] 32.8 µM | [4] 33.7 µM | [5] 20.5 µM | [6] 28.5 µM | [7] 25.6 µM | [9] 55 µM | [20] 26.5 µM | [10] 22.5 µM | [11] 31.4 µM | [12] 24.1 µM | [13] 28.8 µM | [14] 24.3 µM | [15] 21.7 µM | [16] 39.4 µM | [17] 38.8 µM | [18] 52.6 µM

C[C@@H]1C[C@@]2(O[C@@H]2C)C(=O)O[C@@H]2CCN3CC=C(COC(=O)[C@]1(C)O)[C@H]23
inactive: [1] > 100 µM | [2] > 100 µM | [3] > 100 µM | [19] > 100 µM | [4] > 100 µM | [5] > 100 µM | [6] > 100 µM | [7] > 100 µM | [8] > 100 µM | [9] > 100 µM | [20] > 100 µM | [11] > 100 µM | [12] > 100 µM | [13] > 100 µM | [14] > 100 µM | [15] > 100 µM | [16] > 100 µM | [17] > 100 µM | [18] > 100 µM

CCOC(=O)c1cnc2oc3ccc(O)cc3c2c1-c1ccccc1
inactive: [1] 12.8 µM | [3] > 100 µM | [19] 17.6 µM | [4] 37.9 µM | [5] 18 µM | [6] > 100 µM | [8] > 100 µM | [9] 20.6 µM | [20] 14.6 µM | [11] 37.2 µM | [13] 20.9 µM | [14] 16.8 µM | [15] 17.3 µM | [16] > 100 µM | [17] > 100 µM | [18] > 100 µM

CCOc1cc(/C=C2\N=C(c3ccccc3)N(c3nc4ccccc4s3)C2=O)ccc1O
inactive: [2] 48.8 µM | [3] 45.4 µM | [19] 27.9 µM | [5] 27.9 µM | [6] 39.9 µM | [7] 23.7 µM | [8] 48.8 µM | [9] 29 µM | [20] 27.9 µM | [10] 75 µM | [11] 80.2 µM | [12] 49 µM | [13] 37.3 µM | [14] > 100 µM | [15] 50 µM | [16] 40.6 µM | [17] > 100 µM | [18] 45.1 µM

CC(C)(C)C1CCC2c3c([nH]c4ccccc34)C3C(=O)N(c4ccc([N+](=O)[O-])cc4)C(=O)C3C2C1 (stereo unspecified)
inactive: [1] 3.12 µM | [2] 1.77 µM | [3] 24.3 µM | [19] 5.96 µM | [4] 4.86 µM | [5] 26.9 µM | [7] 12.5 µM | [8] 29.1 µM | [9] 11.4 µM | [20] 6.11 µM | [10] 16.4 µM | [11] 27.2 µM | [13] 36.6 µM | [14] 17.8 µM | [15] 20.7 µM | [16] 13.9 µM | [17] 25.2 µM | [18] 26.7 µM

C[C@@H](c1ccccc1)N(CC#N)[C@H]1CCC[C@]1(O)/C=C/c1ccc2c(c1)OCO2
inactive: [1] 3.59 µM | [2] > 25 µM | [3] 3.48 µM | [19] > 25 µM | [4] > 25 µM | [5] > 25 µM | [6] > 25 µM | [7] > 25 µM | [8] > 25 µM | [9] > 25 µM | [20] > 25 µM | [10] > 25 µM | [11] > 25 µM | [12] > 25 µM | [13] 4.31 µM | [14] > 25 µM | [16] > 25 µM | [17] > 25 µM | [18] > 25 µM

CC#CC(O)(C(=O)OCCCN(C)C)C1CCCCC1 (stereo unspecified)
inactive: [1] > 100 µM | [2] > 100 µM | [3] > 100 µM | [19] > 100 µM | [4] > 100 µM | [5] > 100 µM | [8] > 100 µM | [9] > 100 µM | [20] > 100 µM | [10] > 100 µM | [11] > 100 µM | [12] > 100 µM | [13] > 100 µM | [14] > 100 µM | [15] > 100 µM | [16] > 100 µM | [17] > 100 µM | [18] > 100 µM

Fc1ccc(C(OCCN2CCC3CCC(C2)N3C/C=C/c2ccco2)c2ccc(F)cc2)cc1 (stereo unspecified)
inactive: [1] 13.8 µM | [2] 9.1 µM | [3] 11.2 µM | [19] 3.21 µM | [4] 11.4 µM | [5] 8.2 µM | [6] 12.8 µM | [7] 7.23 µM | [8] 4.44 µM | [9] 14.7 µM | [10] 16.2 µM | [11] 13 µM | [12] 15.1 µM | [13] 12.7 µM | [14] 11.1 µM | [15] 14.1 µM | [16] 5.14 µM | [18] 15.7 µM

COC(=O)c1cc(-c2ccc3ccccc3c2)nc(O)c1C#N
inactive: [1] > 100 µM | [2] > 100 µM | [3] > 100 µM | [4] > 100 µM | [5] > 100 µM | [6] > 100 µM | [7] > 100 µM | [8] > 100 µM | [9] > 100 µM | [20] 20.3 µM | [10] > 100 µM | [11] > 100 µM | [12] > 100 µM | [13] > 100 µM | [14] > 100 µM | [15] > 100 µM | [16] > 100 µM | [17] > 100 µM | [18] > 100 µM

CCc1c(Cc2cccc3ccccc23)n2c(nc1=O)SCC2OCCO (stereo unspecified)
inactive: [1] 56.5 µM | [2] 56.5 µM | [3] > 100 µM | [19] 30.4 µM | [4] > 100 µM | [5] 52.6 µM | [6] > 100 µM | [7] 49 µM | [8] > 100 µM | [9] > 100 µM | [20] 36.9 µM | [12] > 100 µM | [13] > 100 µM | [14] > 100 µM | [15] > 100 µM | [16] 31 µM | [17] > 100 µM | [18] 88.3 µM

CC(=O)c1c(O)cc(O)c(-c2c(C)cc(O)c3c2C(=O)c2cccc(O)c2C3=O)c1O
inactive: [1] 14.5 µM | [2] 16.2 µM | [3] 15.6 µM | [19] 19.4 µM | [4] 19.1 µM | [5] 11 µM | [7] 10 µM | [8] 19.9 µM | [9] 7.48 µM | [20] 23.2 µM | [10] 14.9 µM | [11] 13.1 µM | [12] 14.5 µM | [13] 12.9 µM | [14] 25.1 µM | [15] 15.3 µM | [16] 4.95 µM | [17] 17.3 µM | [18] 16.3 µM

CC(=O)Oc1c(C)cc2c(c1C)C(C)(C)CN2C(=O)C(C)(C)C
inactive: [1] > 100 µM | [2] > 100 µM | [3] 55.6 µM | [19] 51.9 µM | [4] > 100 µM | [5] 35.1 µM | [7] > 100 µM | [8] > 100 µM | [9] > 100 µM | [20] 63.8 µM | [10] > 100 µM | [11] > 100 µM | [12] 41.8 µM | [13] > 100 µM | [14] > 100 µM | [15] > 100 µM | [16] 31.6 µM | [17] > 100 µM | [18] > 100 µM

Cc1ccnc2c1ccc1nc3ccccc3n12
inactive: [1] > 100 µM | [2] 22 µM | [3] > 100 µM | [19] > 100 µM | [4] 61.5 µM | [5] > 100 µM | [6] 11.4 µM | [7] 17.9 µM | [8] > 100 µM | [9] 25.8 µM | [20] 85.3 µM | [10] 89.7 µM | [11] 87.7 µM | [12] 30.6 µM | [14] 54.7 µM | [15] 58.9 µM | [16] 18.5 µM | [17] > 100 µM | [18] > 100 µM
